According to US20250171423A1, “PHARMACEUTICAL COMPOUNDS FOR THE TREATMENT OF COMPLEMENT MEDIATED DISORDERS” (Achillion Pharmaceuticals, Inc., priority 2020, published 2025):
Like-named read-outs stand apart in the source and are kept apart here.

Details: rcm bond, Grubbs 1st catalyst, DCM, 28.0 °C, 16.0 h

Which ring closure, yield of all isomers (from C=CCCCCCCCCC(=O)N[C@@H](CCOc1ccccc1)C(=O)NCC(=O)N1[C@H]2C[C@@]2(COCCCC=C)C[C@H]1C(=O)OCC, 15.3 mM) does the source give for `CCOC(=O)[C@@H]1C[C@@]23COCCC/C=C/CCCCCCCCC(=O)N[C@@H](CCOc4ccccc4)C(=O)NCC(=O)N1[C@H]2C3` here?
Its ring closure, yield of all isomers is 38.8%.

With `O=C1CCCCCCCC/C=C/CCCOC[C@@]23C[C@@H]2N(C(=O)CNC(=O)[C@H](CCOc2ccccc2)N1)[C@H](C(=O)OCc1ccccc1)C3` as the molecule, how does the ring closure, yield of all isomers (from C=CCCCCCCCCC(=O)N[C@@H](CCOc1ccccc1)C(=O)NCC(=O)N1[C@H]2C[C@@]2(COCCCC=C)C[C@H]1C(=O)OCc1ccccc1, 14.0 mM) read?
The ring closure, yield of all isomers was 43.4%.
